{
  "source": "paper PMC8286840",
  "about": "“Identifying SARS-CoV-2 antiviral compounds by screening for small molecule inhibitors of Nsp3 papain-like protease” (Biochemical Journal, 2021)",
  "key": {"[1]": {"target": "T1, SARS-CoV-2 PLpro (nsp3 1564–1878) (Severe acute respiratory syndrome coronavirus 2, UniProt P0DTD1)", "test": "biochemical", "design": "FRET-quenched peptide (Pro3) cleavage by PLpro, 10 min pre-incubation, slope over 20 min, normalised to no-compound control", "conditions": "low concentration screen, read-out: % of control remaining"}, "[2]": {"target": "T1, SARS-CoV-2 PLpro (nsp3 1564–1878)", "test": "biochemical", "design": "FRET-quenched peptide (Pro3) cleavage by PLpro, 10 min pre-incubation, slope over 20 min, normalised to no-compound control", "conditions": "high concentration screen, read-out: % of control remaining"}},
  "note": "Structures can show the parent of a compound that is named as a salt. Where two headings read alike, the source gives them in different places.",
  "data": [
    {"smiles": "CC(C)c1onc(-c2c(Cl)cccc2Cl)c1COc1ccc(/C=C/c2cccc(C(=O)O)c2)c(Cl)c1", "note": "[GW4064]", "values": [
      {"measurement": "remaining activity at 1.25 µM", "setting": "[1]; Well no.=5314", "value": 101, "unit": "%"},
      {"measurement": "remaining activity at 3.75 µM", "setting": "[2]; Well no.=5314", "value": 98.2, "unit": "%"}
    ]},
    {"smiles": "O=C1Nc2ccc(I)cc2/C1=C/c1cc(Br)c(O)c(Br)c1", "note": "[GW5074]", "values": [
      {"measurement": "remaining activity at 1.25 µM", "setting": "[1]; Well no.=525", "value": 97.2, "unit": "%"},
      {"measurement": "remaining activity at 3.75 µM", "setting": "[2]; Well no.=525", "value": 96.1, "unit": "%"}
    ]},
    {"smiles": "CC(C)(Sc1ccc(CCN(CCCCC2CCCCC2)C(=O)NC2CCCCC2)cc1)C(=O)O", "note": "[GW7647]", "values": [
      {"measurement": "remaining activity at 1.25 µM", "setting": "[1]; Well no.=621", "value": 95.2, "unit": "%"},
      {"measurement": "remaining activity at 3.75 µM", "setting": "[2]; Well no.=621", "value": 96.3, "unit": "%"}
    ]},
    {"smiles": "O=C(O)CCc1ccc(NCc2cccc(Oc3ccccc3)c2)cc1", "note": "[GW9508]", "values": [
      {"measurement": "remaining activity at 1.25 µM", "setting": "[1]; Well no.=5182", "value": 103, "unit": "%"},
      {"measurement": "remaining activity at 1.25 µM", "setting": "[1]; Well no.=8531", "value": 97.9, "unit": "%"},
      {"measurement": "remaining activity at 3.75 µM", "setting": "[2]; Well no.=5182", "value": 99.8, "unit": "%"},
      {"measurement": "remaining activity at 3.75 µM", "setting": "[2]; Well no.=8531", "value": 98.8, "unit": "%"}
    ]},
    {"smiles": "O=C(Nc1ccccc1)c1cc([N+](=O)[O-])ccc1Cl", "note": "[GW9662]", "values": [
      {"measurement": "remaining activity at 1.25 µM", "setting": "[1]; Well no.=1122", "value": 88.3, "unit": "%"},
      {"measurement": "remaining activity at 3.75 µM", "setting": "[2]; Well no.=1122", "value": 89.4, "unit": "%"}
    ]},
    {"smiles": "Cn1cc(/C=C2\\C(=O)Nc3cccnc32)c2ccccc21", "note": "[GW441756]", "values": [
      {"measurement": "remaining activity at 1.25 µM", "setting": "[1]; Well no.=2791", "value": 103, "unit": "%"},
      {"measurement": "remaining activity at 3.75 µM", "setting": "[2]; Well no.=2791", "value": 103, "unit": "%"}
    ]},
    {"smiles": "O=C(NC1CCOCC1)c1ccc(-c2cc(-c3c[nH]nc3-c3ccccn3)ccn2)cc1", "note": "[GW788388]", "values": [
      {"measurement": "remaining activity at 1.25 µM", "setting": "[1]; Well no.=5067", "value": 102, "unit": "%"},
      {"measurement": "remaining activity at 3.75 µM", "setting": "[2]; Well no.=5067", "value": 106, "unit": "%"}
    ]},
    {"smiles": "O=C(NCC1CCOCC1)c1cnc(Nc2ccc(Cl)cc2Cl)nc1C(F)(F)F", "note": "[GW842166X]", "values": [
      {"measurement": "remaining activity at 1.25 µM", "setting": "[1]; Well no.=5085", "value": 97.9, "unit": "%"},
      {"measurement": "remaining activity at 3.75 µM", "setting": "[2]; Well no.=5085", "value": 100, "unit": "%"}
    ]},
    {"smiles": "O=C1Nc2ccc(I)cc2/C1=C/c1cc(Br)c(O)c(Br)c1", "note": "[GW 5074 - 3-(3,5-Dibromo-4-hydroxy-benzylidene)-5-iodo-1,3-dihydro-indol-2-one]", "values": [
      {"measurement": "remaining activity at 1.25 µM", "setting": "[1]; Well no.=2392", "value": 97.9, "unit": "%"},
      {"measurement": "remaining activity at 3.75 µM", "setting": "[2]; Well no.=2392", "value": 101, "unit": "%"}
    ]},
    {"smiles": "Cn1cc(/C=C2\\C(=O)Nc3cccnc32)c2ccccc21", "note": "[GW 441756 - 1,3-Dihydro-3-[(1-methyl-1H-indol-3-yl)methylene]-2H-pyrrolo[3,2-b]pyridin-2-one]", "values": [
      {"measurement": "remaining activity at 1.25 µM", "setting": "[1]; Well no.=2488", "value": 102, "unit": "%"},
      {"measurement": "remaining activity at 3.75 µM", "setting": "[2]; Well no.=2488", "value": 100, "unit": "%"}
    ]},
    {"smiles": "CS(=O)(=O)CCNCc1nc(-c2ccc3ncnc(Nc4ccc(OCc5cccc(F)c5)c(Cl)c4)c3c2)cs1", "note": "[GW 583340 dihydrochloride - N-[3-Chloro-4-[(3-fluorophenyl)methoxy]phenyl]-6-[2-[[[2-(methylsulfonyl)ethyl]amino]methyl]-4-thiazolyl]-4-quinazolinamine dihydrochloride]", "values": [
      {"measurement": "remaining activity at 1.25 µM", "setting": "[1]; Well no.=2490", "value": 94.4, "unit": "%"},
      {"measurement": "remaining activity at 3.75 µM", "setting": "[2]; Well no.=2490", "value": 94.9, "unit": "%"}
    ]},
    {"smiles": "NC(=O)c1ccc(CNC(=O)NC[C@H]2CN(Cc3ccc(Cl)c(Cl)c3)CCO2)cc1", "note": "[GW 766994]", "values": [
      {"measurement": "remaining activity at 1.25 µM", "setting": "[1]; Well no.=8595", "value": 104, "unit": "%"},
      {"measurement": "remaining activity at 3.75 µM", "setting": "[2]; Well no.=8595", "value": 103, "unit": "%"}
    ]},
    {"smiles": "COc1cc2ncn(-c3cc(OCc4ccccc4C(F)(F)F)c(C(N)=O)s3)c2cc1OC", "note": "[GW 843682X - 5-(5,6-Dimethoxy-1H-benzimidazol-1-yl)-3-[[2-(trifluoromethyl)phenyl]methoxy]-2-thiophenecarboxamide]", "values": [
      {"measurement": "remaining activity at 1.25 µM", "setting": "[1]; Well no.=2668", "value": 92.6, "unit": "%"},
      {"measurement": "remaining activity at 3.75 µM", "setting": "[2]; Well no.=2668", "value": 96.9, "unit": "%"}
    ]},
    {"smiles": "CC1=NN=C(c2ccc(N)cc2)c2cc3c(cc2C1)OCO3", "note": "[GYKI 52466 hydrochloride]", "values": [
      {"measurement": "remaining activity at 1.25 µM", "setting": "[1]; Well no.=748", "value": 92.9, "unit": "%"},
      {"measurement": "remaining activity at 3.75 µM", "setting": "[2]; Well no.=748", "value": 92.5, "unit": "%"}
    ]},
    {"smiles": "CC1Cc2cc3c(cc2C(c2ccc(N)cc2)=NN1)OCO3", "note": "(centres unmarked) [GYKI 52895]", "values": [
      {"measurement": "remaining activity at 1.25 µM", "setting": "[1]; Well no.=414", "value": 95.2, "unit": "%"},
      {"measurement": "remaining activity at 3.75 µM", "setting": "[2]; Well no.=414", "value": 95.8, "unit": "%"}
    ]},
    {"smiles": "N[C@@H]1C=CC=C(C(=O)O)C1", "note": "[Gabaculine hydrochloride]", "values": [
      {"measurement": "remaining activity at 1.25 µM", "setting": "[1]; Well no.=13", "value": 105, "unit": "%"},
      {"measurement": "remaining activity at 3.75 µM", "setting": "[2]; Well no.=13", "value": 105, "unit": "%"}
    ]},
    {"smiles": "NCC1(CC(=O)O)CCCCC1", "note": "[Gabapentin]", "values": [
      {"measurement": "remaining activity at 1.25 µM", "setting": "[1]; Well no.=510", "value": 104, "unit": "%"},
      {"measurement": "remaining activity at 1.25 µM", "setting": "[1]; Well no.=1755", "value": 98.1, "unit": "%"},
      {"measurement": "remaining activity at 3.75 µM", "setting": "[2]; Well no.=510", "value": 105, "unit": "%"},
      {"measurement": "remaining activity at 3.75 µM", "setting": "[2]; Well no.=1755", "value": 100, "unit": "%"}
    ]},
    {"smiles": "CCOC(=O)c1ccc(OC(=O)CCCCCNC(=N)N)cc1", "note": "[Gabexate mesylate]", "values": [
      {"measurement": "remaining activity at 1.25 µM", "setting": "[1]; Well no.=5092", "value": 97.5, "unit": "%"},
      {"measurement": "remaining activity at 3.75 µM", "setting": "[2]; Well no.=5092", "value": 102, "unit": "%"}
    ]},
    {"smiles": "COc1ccc2c3c1O[C@H]1C[C@@H](O)C=C[C@@]31CCN(C)C2", "note": "[Galanthamine]", "values": [
      {"measurement": "remaining activity at 1.25 µM", "setting": "[1]; Well no.=1707", "value": 105, "unit": "%"},
      {"measurement": "remaining activity at 3.75 µM", "setting": "[2]; Well no.=1707", "value": 101, "unit": "%"}
    ]},
    {"smiles": "C[C@]12CC[C@H](O)CC1=CC[C@@H]1[C@@H]2CC[C@]2(C)C(n3cnc4ccccc43)=CC[C@@H]12", "note": "[Galeterone (TOK-001)]", "values": [
      {"measurement": "remaining activity at 1.25 µM", "setting": "[1]; Well no.=5127", "value": 97.5, "unit": "%"},
      {"measurement": "remaining activity at 3.75 µM", "setting": "[2]; Well no.=5127", "value": 99.7, "unit": "%"}
    ]}
  ]
}
